From patent EP0908457B1, “3-(1,2-benzisothiazol- and isoxazol-5-Y1)-2,4(1H,3H)-pyrimidinedione or thione and 3-(1,2-benzisothiazol- and isoxazol-5-y1)-4(3H)-pyrimidinone or thione herbicidal agents” (BASF AKTIENGESELLSCHAFT, priority 1997, dated 1999)

Legend:
[1] = system: Sagittaria pygmaea, L.; experiment: Preemergence weed control under flooded paddy conditions, SAGPY (Arrowhead (Pygmaea)); format: in vivo; details: preemergence weeds, flooded paddy, rated three to four weeks after treatment; also: meaning of each grade not given here
[2] = system: Cyperus serotinus, Rottb.; experiment: Postemergence weed control under flooded paddy conditions, CYPSE (Flatsedge); format: in vivo; details: rated three to four weeks after treatment
[3] = system: Monochoria vaginalis, Presl.; experiment: Postemergence weed control under flooded paddy conditions, MOOVA (Monochoria); format: in vivo; details: rated three to four weeks after treatment
[4] = system: Echinochloa oryzoides (Ard.) Fritsch.; experiment: Preemergence weed control under flooded paddy conditions, ECHORC (Watergrass (Calif.)); format: in vivo; details: preemergence weeds, flooded paddy, rated three to four weeks after treatment; also: meaning of each grade not given here
[5] = system: Echinochloa oryzoides (Ard.) Fritsch.; experiment: Postemergence weed control under flooded paddy conditions, ECHORC (Watergrass (Calif.)); format: in vivo; details: rated three to four weeks after treatment
[6] = system: Cyperus iria; experiment: Postemergence weed control under flooded paddy conditions, CYPIR (Rice Flatsedge); format: in vivo; details: rated three to four weeks after treatment
[7] = system: Oryza sativa, (L.) Tebonnet; experiment: Rice tolerance to post-transplant applications under flooded paddy conditions (Example 187), ORYSAT (Rice, Tebonnet); details: rated three to four weeks after treatment; also: meaning of each grade not given here
[8] = system: Cyperus iria; experiment: Preemergence weed control under flooded paddy conditions, CYPIR (Rice Flatsedge); format: in vivo; details: preemergence weeds, flooded paddy, rated three to four weeks after treatment; also: meaning of each grade not given here
[9] = system: Cyperus serotinus, Rottb.; experiment: Preemergence weed control under flooded paddy conditions, CYPSE (Flatsedge); format: in vivo; details: preemergence weeds, rated three to four weeks after treatment; also: meaning of each grade not given here
[10] = system: Monochoria vaginalis, Presl.; experiment: Preemergence weed control under flooded paddy conditions, MOOVA (Monochoria); format: in vivo; details: preemergence weeds, flooded paddy, rated three to four weeks after treatment; also: meaning of each grade not given here
[11] = system: Sagittaria pygmaea, L.; experiment: Postemergence weed control under flooded paddy conditions, SAGPY (Arrowhead (Pygmaea)); format: in vivo; details: rated three to four weeks after treatment
[12] = system: Oryza sativa, (L.) Tebonnet; experiment: Rice tolerance to post-transplant applications under flooded paddy conditions (Example 188), ORYSAT (Rice, Tebonnet); details: rated three to four weeks after treatment

## COc1ccc(OC)c(-c2nsc3ccc(-n4c(=O)cc(C(F)(F)F)n(C)c4=O)cc23)c1 [Example 333, 2,4(1H,3H)-Pyrimidinedione, 3-[3-(2,5-dimethoxyphenyl)-1,2-benzisothiazol-5-yl]-1-methyl-6-(trifluoromethyl)-]
[1]; Rate 0.0320 kg/ha
  herbicidal effect rating, SAGPY: 5.5
[1]; Rate 0.0620 kg/ha
  herbicidal effect rating, SAGPY: 8.0
[1]; Rate 0.1250 kg/ha
  herbicidal effect rating, SAGPY: 8.5
[1]; Rate 0.2500 kg/ha
  herbicidal effect rating, SAGPY: 9.0
[2]; Rate 0.0320 kg/ha
  herbicidal effect rating, CYPSE: 0.0
[2]; Rate 0.0620 kg/ha
  herbicidal effect rating, CYPSE: 2.0
[2]; Rate 0.1250 kg/ha
  herbicidal effect rating, CYPSE: 4.0
[2]; Rate 0.2500 kg/ha
  herbicidal effect rating, CYPSE: 8.0
[3]; Rate 0.0320 kg/ha
  herbicidal effect rating, MOOVA: 9.0
[3]; Rate 0.0620 kg/ha
  herbicidal effect rating, MOOVA: 9.0
[3]; Rate 0.1250 kg/ha
  herbicidal effect rating, MOOVA: 9.0
[3]; Rate 0.2500 kg/ha
  herbicidal effect rating, MOOVA: 9.0
[4]; Rate 0.0320 kg/ha
  herbicidal effect rating, ECHORC: 9.0
[4]; Rate 0.0620 kg/ha
  herbicidal effect rating, ECHORC: 9.0
[4]; Rate 0.1250 kg/ha
  herbicidal effect rating, ECHORC: 9.0
[4]; Rate 0.2500 kg/ha
  herbicidal effect rating, ECHORC: 9.0
[5]; Rate 0.0320 kg/ha
  herbicidal effect rating, ECHORC: 9.0
[5]; Rate 0.0620 kg/ha
  herbicidal effect rating, ECHORC: 9.0
[5]; Rate 0.1250 kg/ha
  herbicidal effect rating, ECHORC: 9.0
[5]; Rate 0.2500 kg/ha
  herbicidal effect rating, ECHORC: 9.0
[6]; Rate 0.0320 kg/ha
  herbicidal effect rating, CYPIR: 9.0
[6]; Rate 0.0620 kg/ha
  herbicidal effect rating, CYPIR: 9.0
[6]; Rate 0.1250 kg/ha
  herbicidal effect rating, CYPIR: 9.0
[6]; Rate 0.2500 kg/ha
  herbicidal effect rating, CYPIR: 9.0
[7]; Rate 0.0320 kg/ha
  herbicidal effect rating ORYSAT: 4.0
[7]; Rate 0.0620 kg/ha
  herbicidal effect rating ORYSAT: 6.0
[7]; Rate 0.1250 kg/ha
  herbicidal effect rating ORYSAT: 7.0
[7]; Rate 0.2500 kg/ha
  herbicidal effect rating ORYSAT: 7.0
[8]; Rate 0.0320 kg/ha
  herbicidal effect rating, CYPIR: 9.0
[8]; Rate 0.0620 kg/ha
  herbicidal effect rating, CYPIR: 9.0
[8]; Rate 0.1250 kg/ha
  herbicidal effect rating, CYPIR: 9.0
[8]; Rate 0.2500 kg/ha
  herbicidal effect rating, CYPIR: 9.0
[9]; Rate 0.0320 kg/ha
  herbicidal effect rating, CYPSE: 7.0
[9]; Rate 0.0620 kg/ha
  herbicidal effect rating, CYPSE: 7.0
[9]; Rate 0.1250 kg/ha
  herbicidal effect rating, CYPSE: 7.5
[9]; Rate 0.2500 kg/ha
  herbicidal effect rating, CYPSE: 7.5
[10]; Rate 0.0320 kg/ha
  herbicidal effect rating, MOOVA: 9.0
[10]; Rate 0.0620 kg/ha
  herbicidal effect rating, MOOVA: 9.0
[10]; Rate 0.1250 kg/ha
  herbicidal effect rating, MOOVA: 9.0
[10]; Rate 0.2500 kg/ha
  herbicidal effect rating, MOOVA: 9.0
[11]; Rate 0.0320 kg/ha
  herbicidal effect rating, SAGPY: 0.0
[11]; Rate 0.0620 kg/ha
  herbicidal effect rating, SAGPY: 2.0
[11]; Rate 0.1250 kg/ha
  herbicidal effect rating, SAGPY: 4.0
[11]; Rate 0.2500 kg/ha
  herbicidal effect rating, SAGPY: 4.0
[12]; Rate 0.0320 kg/ha
  herbicidal effect rating, ORYSAT (rice tolerance): 4.0
[12]; Rate 0.0620 kg/ha
  herbicidal effect rating, ORYSAT (rice tolerance): 5.0
[12]; Rate 0.1250 kg/ha
  herbicidal effect rating, ORYSAT (rice tolerance): 6.0
[12]; Rate 0.2500 kg/ha
  herbicidal effect rating, ORYSAT (rice tolerance): 6.0
